Experimental data from patent publication US20230338337A1, “BIOMARKERS FOR CANCER THERAPY USING MDM2 ANTAGONISTS” (OTSUKA PHARMACEUTICAL CO., LTD., priority 2019, published 2023).
Read-outs that look alike come from different tables or passages of the source. One block for each substance: values may come before it.

How the values were obtained:
[1] = test system: SJSA-1 (p53 wild-type, MDM2 amplified osteosarcoma); test: Protocol A: SRB growth inhibition assay; conditions: read-out: SJSA-1 IC50 (μM) (Protocol A)
[2] = molecular target: MDM2-p53 interaction (in vitro translated MDM2) (Homo sapiens (Human), UniProt Q00987); test: MDM2-p53 interaction 96-well plate binding assay (ELISA); conditions: for MDM2 % inhibition at 0.0010: at 0.0010 μM; for MDM2 % inhibition at 0.030: at 0.030 μM
SJSA-1 = test: Protocol B: CellTiter-Glo cell viability assay; conditions: read-out: SJSA1 IC50 (μM) (Protocol B); Protocol B

Sequence of MDM2-p53 interaction (in vitro translated MDM2) (Q00987 whole entry): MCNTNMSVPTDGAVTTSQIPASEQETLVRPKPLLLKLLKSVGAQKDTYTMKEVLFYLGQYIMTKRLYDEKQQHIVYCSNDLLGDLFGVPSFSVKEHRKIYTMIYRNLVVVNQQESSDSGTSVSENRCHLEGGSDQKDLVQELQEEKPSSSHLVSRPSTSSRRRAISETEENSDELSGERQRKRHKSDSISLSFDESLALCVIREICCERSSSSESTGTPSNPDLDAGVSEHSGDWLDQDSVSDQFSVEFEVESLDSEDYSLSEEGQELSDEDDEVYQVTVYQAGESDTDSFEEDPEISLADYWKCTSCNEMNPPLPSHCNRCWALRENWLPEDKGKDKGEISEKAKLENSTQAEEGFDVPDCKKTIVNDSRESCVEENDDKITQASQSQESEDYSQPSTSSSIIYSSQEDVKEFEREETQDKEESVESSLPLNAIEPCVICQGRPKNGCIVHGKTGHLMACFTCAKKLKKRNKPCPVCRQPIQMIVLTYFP

Substance: 1-({[(1R)-1-(4-chlorophenyl)-2-[(4-chlorophenyl)methyl]-5-(2-hydroxypropan-2-yl)-3-oxo-2,3-dihydro-1H-isoindol-1-yl]oxy}methyl)cyclopropane-1-carboxylic acid [Example 5]
IC50 [1]: 0.2 µM | IC50 ([2]; read-out: MDM2 IC50): 3.8 nM

Substance: 1-({[(1R)-1-(4-chlorophenyl)-2-[(5-chloropyridin-2-yl)methyl]-7-fluoro-5-{1-hydroxy-1-[1-(2-hydroxyethyl)piperidin-4-yl]ethyl}-3-oxo-2,3-dihydro-1H-isoindol-1-yl]oxy}methyl)cyclopropane-1-carbonitrile [Example 420]
IC50 [1]: 0.49 µM | MDM2 % at concentration [2]: 68%@0.0010 | IC50 (SJSA-1): 0.87 µM

Substance: 1-({[(1R)-5-[1-(1-acetylpiperidin-4-yl)-1-hydroxyethyl]-1-(4-chlorophenyl)-2-[(5-chloropyridin-2-yl)methyl]-7-fluoro-3-oxo-2,3-dihydro-1H-isoindol-1-yl]oxy}methyl)cyclopropane-1-carbonitrile [Example 301]
IC50 [1]: 0.07 µM | MDM2 % at concentration [2]: 75%@0.0010

Substance: 2-{[(1R)-1-(4-chlorophenyl)-1-[(1-cyanocyclopropyl)methoxy]-7-fluoro-5-[1-(4-fluoro-1-methylpiperidin-4-yl)-1-hydroxypropyl]-3-oxo-2,3-dihydro-1H-isoindol-2-yl]methyl}pyrimidine-5-carbonitrile [Example 574]
IC50 [1]: 0.021 µM | MDM2 % inhibition at 0.0010 [2]: 45%@0.0010

Substance: 2-{[(1R)-1-(4-chlorophenyl)-7-fluoro-5-[(1S)-1-hydroxy-1-(1-methylpiperidin-4-yl)propyl]-3-oxo-1-[(3S)-oxolan-3-yloxy]-2,3-dihydro-1H-isoindol-2-yl]methyl}pyrimidine-5-carbonitrile [Example 557]
IC50 [1]: 0.25 µM | MDM2 % inhibition at 0.0010 [2]: 81%@0.0010

Substance: 2-{[(1R)-1-(4-chlorophenyl)-7-fluoro-5-{1-hydroxy-1-[trans-4-hydroxycyclohexyl]propyl}-1-methoxy-3-oxo-2,3-dihydro-1H-isoindol-2-yl]methyl}pyrimidine-5-carbonitrile [Example 504]
IC50 [1]: 0.039 µM | MDM2 % inhibition at 0.0010 [2]: 71%@0.0010

Substance: 5-{[(1R)-1-(4-chlorophenyl)-7-fluoro-5-[1-hydroxy-1-(1-methyl-1H-imidazol-4-yl)propyl]-3-oxo-1-[(3S)-oxolan-3-yloxy]-2,3-dihydro-1H-isoindol-2-yl]methyl}pyridine-2-carbonitrile [Example 431]
IC50 [1]: 0.11 µM | MDM2 % inhibition at 0.0010 [2]: 48%@0.0010

Substance: 6-{[(1R)-1-(4-chlorophenyl)-7-fluoro-3-oxo-1-[(3S)-oxolan-3-yloxy]-5-[2,2,2-trifluoro-1-hydroxy-1-(1-methyl-1H-pyrazol-4-yl)ethyl]-2,3-dihydro-1H-isoindol-2-yl]methyl}pyridine-3-carbonitrile [Example 428]
IC50 [1]: 0.11 µM | MDM2 % inhibition at 0.0010 [2]: 65%@0.0010

Substance: 6-{[(1R)-1-(4-chlorophenyl)-7-fluoro-5-[1-(4-fluorooxan-4-yl)-1-hydroxypropyl]-1-[(2R)-2-hydroxypropoxy]-3-oxo-2,3-dihydro-1H-isoindol-2-yl]methyl}pyridine-3-carbonitrile [Example 497]
IC50 [1]: 0.039 µM | MDM2 % inhibition at 0.0010 [2]: 83%@0.0010

Substance: 6-{[(1R)-1-(4-chlorophenyl)-7-fluoro-5-[1-hydroxy-1-(1-methyl-1H-imidazol-4-yl)propyl]-1-(2-methoxyethoxy)-3-oxo-2,3-dihydro-1H-isoindol-2-yl]methyl}pyridine-3-carbonitrile [Example 430]
IC50 [1]: 0.11 µM | MDM2 % inhibition at 0.0010 [2]: 59%@0.0010

Substance: 6-{[(1R)-1-(4-chlorophenyl)-7-fluoro-5-{1-hydroxy-1-[trans-4-hydroxycyclohexyl]propyl}-1-methoxy-3-oxo-2,3-dihydro-1H-isoindol-2-yl]methyl}pyridine-3-carbonitrile [Example 521]
IC50 [1]: 0.035 µM | MDM2 % inhibition at 0.0010 [2]: 77%@0.0010

Substance: (2S)-3-{[(1R)-1-(4-Chlorophenyl)-2-[(5-chloropyridin-2-yl)methyl]-7-fluoro-5-(2-hydroxypropan-2-yl)-3-oxo-2,3-dihydro-1H-isoindol-1-yl]oxy}-2-methylpropanamide [Example 167]
IC50 [1]: 0.64 µM

Substance: (3R)-2-[(5-chloro-3-hydroxypyridin-2-yl)methyl]-3-(4-chlorophenyl)-4-fluoro-6-[1-hydroxy-1-(1-methyl-1H-imidazol-4-yl)propyl]-3-[cis-3-hydroxycyclobutoxy]-2,3-dihydro-1H-isoindol-1-one [Example 487]
IC50 [1]: 0.12 µM | MDM2 % inhibition at 0.0010 [2]: 59%@0.0010

Substance: (3R)-3-(4-chlorophenyl)-2-[(4-chlorophenyl)methyl]-4-fluoro-3-{[1-(hydroxymethyl)cyclopropyl]methoxy}-6-(2-hydroxypropan-2-yl)-2,3-dihydro-1H-isoindol-1-one [Example 2]
IC50 [1]: 1.7 µM | IC50 (SJSA-1): 3.4 µM

Substance: (3R)-3-(4-chlorophenyl)-2-[(5-chloropyridin-2-yl)methyl]-4-fluoro-6-{1-hydroxy-1-[1-(2-hydroxyacetyl)piperidin-4-yl]ethyl}-3-methoxy-2,3-dihydro-1H-isoindol-1-one [Example 296]
IC50 [1]: 0.11 µM | MDM2 % at concentration [2]: 62%@0.0010

Substance: (3R)-3-(4-chlorophenyl)-2-[(5-chloropyrimidin-2-yl)methyl]-4-fluoro-6-[1-(4-fluoropiperidin-4-yl)-1-hydroxypropyl]-3-[cis-3-hydroxycyclobutoxy]-2,3-dihydro-1H-isoindol-1-one [Example 542]
MDM2 % inhibition at 0.010 ([2]; at 0.010 μM): 57%@0.010 | IC50 (SJSA-1): 3.1 µM

Substance: (3R)-3-(4-chlorophenyl)-4-fluoro-6-[1-hydroxy-1-(1-methyl-1H-pyrazol-4-yl)ethyl]-3-[(1-hydroxycyclopropyl)methoxy]-2-[(5-methoxypyridin-2-yl)methyl]-2,3-dihydro-1H-isoindol-1-one [Example 347]
MDM2 % at concentration ([2]; at 0.10 μM): 63%@0.10 | IC50 (SJSA-1): 1.7 µM

Substance: (3R)-6-[1-(1-acetylpiperidin-4-yl)-1-hydroxyethyl]-2-{[5-chloro-3-(hydroxymethyl)pyridin-2-yl]methyl}-3-(4-chlorophenyl)-4-fluoro-3-methoxy-2,3-dihydro-1H-isoindol-1-one [Example 424]
MDM2 % inhibition at 0.0030 ([2]; at 0.0030 μM): 45%@0.0030 | IC50 (SJSA-1): 0.69 µM

Now from value to substance:

IC50 [1]: 0.045 µM | MDM2 % inhibition at 0.0010 [2]: 65%@0.0010
Substance: (3R)-3-(4-chlorophenyl)-2-[(5-chloropyrimidin-2-yl)methyl]-4-fluoro-6-[1-(4-fluoro-1-methylpiperidin-4-yl)-1-hydroxypropyl]-3-(2-hydroxyethoxy)-2,3-dihydro-1H-isoindol-1-one [Example 565]

MDM2 % inhibition at 0.030 [2]: 33%@0.030 | IC50 (SJSA-1): 1.8 µM
Substance: (3R)-3-(4-chlorophenyl)-2-[(5-chloropyrimidin-2-yl)methyl]-4-fluoro-6-[1-(4-fluoropiperidin-4-yl)-1-hydroxypropyl]-3-[(3S)-oxolan-3-yloxy]-2,3-dihydro-1H-isoindol-1-one [Example 540]

IC50 [1]: 0.19 µM | MDM2 % inhibition at 0.00030 ([2]; at 0.00030 μM): 64%@0.0003
Substance: (3R)-3-(4-chlorophenyl)-2-[(5-chloropyrimidin-2-yl)methyl]-4-fluoro-6-[1-(4-fluoropiperidin-4-yl)-1-hydroxypropyl]-3-[(3S)-oxolan-3-yloxy]-2,3-dihydro-1H-isoindol-1-one [Example 541]

IC50 [1]: 0.032 µM | MDM2 % inhibition at 0.0010 [2]: 86%@0.0010
Substance: (3R)-3-(4-chlorophenyl)-2-[(5-chloropyrimidin-2-yl)methyl]-4-fluoro-6-[1-(4-fluoropiperidin-4-yl)-1-hydroxypropyl]-3-methoxy-2,3-dihydro-1H-isoindol-1-one [Example 544]

MDM2 % inhibition at 0.030 [2]: 38%@0.030 | IC50 (SJSA-1): 1.3 µM
Substance: (3R)-3-(4-chlorophenyl)-2-[(5-chloropyrimidin-2-yl)methyl]-4-fluoro-6-[1-hydroxy-1-(1-methyl-1H-imidazol-4-yl)propyl]-3-[(3S)-oxolan-3-yloxy]-2,3-dihydro-1H-isoindol-1-one [Example 474]

IC50 [1]: 0.028 µM | MDM2 % inhibition at 0.0010 [2]: 71%@0.0010
Substance: (3R)-3-(4-chlorophenyl)-2-[(5-chloropyrimidin-2-yl)methyl]-4-fluoro-6-[1-hydroxy-1-(1-methyl-1H-imidazol-4-yl)propyl]-3-[(3S)-oxolan-3-yloxy]-2,3-dihydro-1H-isoindol-1-one [Example 475]

MDM2 % inhibition at 0.030 [2]: 51%@0.030 | IC50 (SJSA-1): 0.6 µM
Substance: (3R)-3-(4-chlorophenyl)-2-[(5-chloropyrimidin-2-yl)methyl]-4-fluoro-6-[1-hydroxy-1-(1-methyl-1H-imidazol-4-yl)propyl]-3-{[1-(hydroxymethyl)cyclopropyl]methoxy}-2,3-dihydro-1H-isoindol-1-one [Example 476]

IC50 [1]: 0.031 µM | MDM2 % inhibition at 0.0010 [2]: 70%@0.0010
Substance: (3R)-3-(4-chlorophenyl)-2-[(5-chloropyrimidin-2-yl)methyl]-4-fluoro-6-[(1S)-1-hydroxy-1-[1-(oxetan-3-yl)piperidin-4-yl]propyl]-3-methoxy-2,3-dihydro-1H-isoindol-1-one [Example 551]

IC50 [1]: 0.019 µM | MDM2 % inhibition at 0.0010 [2]: 82%@0.0010
Substance: (3R)-3-(4-chlorophenyl)-2-[(5-chloropyrimidin-2-yl)methyl]-4-fluoro-6-{1-hydroxy-1-[trans-4-hydroxycyclohexyl]propyl}-3-(2-hydroxyethoxy)-2,3-dihydro-1H-isoindol-1-one [Example 517]

MDM2 % inhibition at 0.030 [2]: 35%@0.030 | IC50 (SJSA-1): 1.9 µM
Substance: (3R)-3-(4-chlorophenyl)-2-[(5-chloropyrimidin-2-yl)methyl]-4-fluoro-6-{1-hydroxy-1-[trans-4-hydroxycyclohexyl]propyl}-3-(2-hydroxyethoxy)-2,3-dihydro-1H-isoindol-1-one [Example 519]
